Measurements: patent publication US5935973A, “Heterocyclcarboxamide derivatives and their use as therapeutic agents” (Knoll Aktiengesellschaft, priority 1995, dated 1999)

Experiments:
[1] = target: T1, 5-HT1A receptors (Rattus norvegicus, UniProt P19327); assay: inhibition of [3H]8-OH-DPAT binding to 5-HT1A receptors in rat hippocampal tissue; conditions: rat hippocampus; for Ki: [3H]8-OH-DPAT 2 nM, 25° C., 30 min; for inhibition at 1 µM: at 10^-6 M, [3H]8-OH-DPAT, read-out: % displacement of radio ligand, 5-HT1A
T1 construct: Hippocampal tissue from the brains of male Sprague-Dawley rats; from tissue; host or cells: rat hippocampus membranes
T1 sequence (P19327 1-422): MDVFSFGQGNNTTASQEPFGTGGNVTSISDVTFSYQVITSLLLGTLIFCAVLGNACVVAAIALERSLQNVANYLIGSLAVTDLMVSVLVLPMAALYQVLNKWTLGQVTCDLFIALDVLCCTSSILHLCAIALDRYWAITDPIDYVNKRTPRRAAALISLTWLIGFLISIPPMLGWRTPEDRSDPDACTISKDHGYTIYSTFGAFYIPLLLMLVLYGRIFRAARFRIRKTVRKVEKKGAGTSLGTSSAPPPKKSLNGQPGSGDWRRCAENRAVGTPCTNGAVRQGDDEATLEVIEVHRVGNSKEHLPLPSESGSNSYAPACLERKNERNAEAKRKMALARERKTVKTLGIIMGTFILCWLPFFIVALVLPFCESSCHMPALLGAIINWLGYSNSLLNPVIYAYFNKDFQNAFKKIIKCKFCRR
Description: Hippocampal tissue from the brains of male Sprague-Dawley rats (Charles River; weight range 150-250 g) was homogenised in ice-cold 50 mM Tris-HCl buffer (pH 7.7 when measured at 25° C., 1:40 w/v) and centrifuged at 30,000 g at 4° C. for 10 minutes. The pellet was rehomogenised in the same buffer, incubated at 37° C. for 10 minutes and centrifuged at 30,000 g at 4° C. for 10 minutes. The final pellet was resuspended in 50 mM Tris-HCl buffer (pH 7.7) containing 4 mM CaCl2, 0.1% L-ascorbic acid and 10 μM pargyline hydrochloride (equivalent to 6.25 mg wet weight of tissue/ml) and used immediately in the binding assay. Aliquots (400 μl; equivalent to 2.5 mg wet weight of tissue/tube) of this suspension were added to tubes containing the ligand (50 μl; 2 nM) and distilled water (50 μl total binding) or 5-HT (50 μl; 10 μM; non-specific binding) or test compound (50 μl; at a single concentration of 10^-6 M or at 10 concentrations ranging from 10^-11 -10^-3 M). The ligand was [^3 H]8-hydroxy-2-(dipropylamino)tetralin ([^3 H]8-OH-DPAT) and the mixture was incubated at 25° C. for 30 minutes before the incubation was terminated by rapid filtration.
(§1) The filters were washed with ice-cold Tris-HCl buffer and dried. The filters were punched out into vials, scintillation fluid added and radioactivity determined by liquid scintillation counting. The percentage displacement of specific binding of the tritiated ligand was calculated for the single concentration (10^-6 M) of test compound. Displacement curves were then produced for those compounds which displaced ≥50% of specific binding of the tritiated ligand at 10^-6 M using a range of concentrations of the compound. The concentration which gave 50% inhibition of specific binding (IC50) was obtained from the curve. The inhibition coefficient Ki was then calculated using the formula [formula] in which [ligand] is the concentration of the tritiated ligand used and KD is the equilibrium dissociation constant for the ligand.

[2] = target: T2, D2 dopamine receptors (Rattus norvegicus, UniProt P61169); assay: inhibition of tritiated (S)-sulpiride binding to D2 dopamine receptors in rat striatal tissue; conditions: rat striatum; for Ki: tritiated (S)-sulpiride 1 nM, 4° C., 40 min; for inhibition at 1 µM: at 10^-6 M, tritiated (S)-sulpiride, read-out: % displacement of radio ligand, D2
T2 construct: Striatal tissue from the brains of male Charles River CD rats; from tissue; host or cells: rat striatum membranes
Description: Striatal tissue from the brains of male Charles River CD rats weighing between 140-250 g were homogenised in ice-cold 50 mM Tris-HCl buffer (pH 7.7 when measured at 25° C.) and centrifuged at 40,000 g for 10 minutes. The pellet was resuspended in Tris salts buffer (50 mM Tris-HCl buffer containing 120 mM NaCl, 5 mM KCl, 2 mM CaCl2 and 1 mM MgCl2 with the addition of 6 mM ascorbic acid; pH 7.7 when measured at 25° C.), and again centrifuged at 40,000 g for 10 minutes. The final pellet was stored at -80° C. Before each test the pellet was resuspended in Tris salts buffer (equivalent to 2 mg wet weight of tissue/ml). Aliquots (720 μl; equivalent to 1.44 mg wet weight of tissue/tube) of this suspension were then added to tubes containing the ligand (40 μl; 1 nM) and Tris salts buffer (40 μl; total binding) or spiroperidol (40 μl; 10 nM; non-specific binding) or test compound (40 μl; at a single concentration of 10^-6 M or at 6 concentrations ranging from 10^-11 -10^-4 M). The ligand was tritiated (S)-sulpiride and the mixture was incubated at 4° C. for 40 minutes before the incubation was terminated by rapid filtration.
The filters were washed with ice-cold Tris-HCl buffer and dried. The filters were punched out in to vials, scintillation fluid added and were left for about 20 hours before being counted by scintillation spectrophotometry. The percentage displacement of specific binding of the tritiated ligand was calculated for the single concentration (10^-6 M) of test compound. Displacement curves were then produced over a range of concentrations for those compounds which displaced ≥50% of specific binding of the tritiated ligand at 10^-6 M. The concentration which gave a 50% inhibition of specific binding (IC50) was obtained from the curve. The inhibition coefficient Ki was then calculated using the formula [formula] in [ligand] is the concentration of the tritiated ligand used and KD is the 2 equilibrium dissociation constant for the ligand.

[3] = target: α1-adrenoceptors; assay: inhibition of [7-methoxy-3H]prazosin binding to α1-adrenoceptors in rat whole cortical tissue; conditions: rat whole cortex, 30 min; for Ki: [7-methoxy-3H]prazosin 0.1 nM, 30° C.; for % displacement of radio ligand, α1: at 10^-6 M, [7-methoxy-3H]prazosin, 1 µM
Description: Whole cortical tissue from the brains of male Charles River CD rats weighing between 150-250 g were homogenised in ice-cold 50 mM Tris-HCl, pH 7.6 (at 25° C.; 1:40 w/v) and centrifuged at 1000 g at 4° C. for 10 minutes. The supernatant was centrifuged at 30,000 g at 4° C. for 10 minutes. The pellet was rehomogenised in 50 mM Tris-HCl, pH 7.6 (1:40 w/v) and centrifuged at 30,000 g at 4° C. for 10 minutes. The final pellet was resuspended in 50 mM Tris-HCl, pH 7.6 (equivalent to 12.5 mg wet weight of tissue/ml) and used immediately in the binding assay. Aliquots (400 μl; equivalent to 5 mg wet weight of tissue/tube) of this suspension were added to tubes containing the ligand (50 μl; 0.1 nM) and distilled water (50 μl; total binding) or phentolamine (50 μl; 5 μM; non-specific binding) or test compound (50 μl; at a single concentration of 10^-6 M or at 10 concentrations ranging from 10^-11 -10^-3 M). The ligand was [7-methoxy-^3 H]prazosin and the mixture was incubated at 30° C. for 30 minutes before the incubation was terminated by rapid filtration.
as §1

T2 sequence (P61169 whole entry): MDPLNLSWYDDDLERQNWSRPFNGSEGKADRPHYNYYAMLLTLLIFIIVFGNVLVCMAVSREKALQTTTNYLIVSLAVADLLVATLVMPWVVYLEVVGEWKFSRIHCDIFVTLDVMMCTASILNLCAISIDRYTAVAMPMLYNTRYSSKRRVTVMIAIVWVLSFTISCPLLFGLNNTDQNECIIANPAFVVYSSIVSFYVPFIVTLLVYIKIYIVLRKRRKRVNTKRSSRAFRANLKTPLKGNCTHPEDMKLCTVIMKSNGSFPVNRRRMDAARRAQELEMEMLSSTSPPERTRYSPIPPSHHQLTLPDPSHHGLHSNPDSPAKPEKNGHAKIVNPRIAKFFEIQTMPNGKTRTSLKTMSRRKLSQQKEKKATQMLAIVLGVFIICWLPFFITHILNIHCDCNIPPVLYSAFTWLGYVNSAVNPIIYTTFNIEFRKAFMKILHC

Nc1ncccc1C(=O)N1CCC(CNCC2COc3ccc(Cl)cc3O2)CC1 (racemic) [Example 19, 1-(2-aminonicotinoyl)-4-[N-(7-chloro-1,4-benzodioxan-2-ylmethyl)aminomethyl]piperidine]
Ki [1]: 30 nM | Ki [2]: 11.4 nM | Ki [3]: 49 nM

Nc1ncccc1C(=O)NCC1CCN(C[C@H]2COc3ccc(Br)cc3O2)CC1 [Example 21, (S)-2-amino-N-{[1-(7-bromo-1,4-benzodioxan-2-ylmethyl)-4-piperidyl]methyl}pyridine-3-carboxamide]
Ki [1]: 35 nM | Ki [2]: 18 nM | Ki [3]: 99 nM

O=C(NCC1CCN(C[C@H]2COc3cccc(Cl)c3O2)CC1)c1cccnc1 [Example 24, (S)-N-{[1-(8-chloro-1,4-benzodioxan-2-ylmethyl)-4-piperidyl]methyl}pyridine-3-carboxamide]
Ki [1]: 34 nM | Ki [2]: 16 nM | Ki [3]: 9 nM

Cc1cccc(C(=O)NCC2CCN(C[C@H]3COc4ccc(Cl)cc4O3)CC2)n1 [Example 25, (S)-N-{[1-(7-chloro-1,4-benzodioxan-2-ylmethyl)-4-piperidyl]methyl}-6-methylpyridine-2-carboxamide]
Ki [1]: 47 nM | Ki [2]: 33 nM | Ki [3]: 233 nM

COc1ncccc1C(=O)NCC1CCN(C[C@H]2COc3ccc(Cl)cc3O2)CC1 [Example 26, (S)-N-{[1-(7-chloro-1,4-benzodioxan-2-ylmethyl)-4-piperidyl]methyl}-2-methoxypyridine-3-carboxamide]
Ki [1]: 7 nM | Ki [2]: 43 nM | Ki [3]: 130 nM

Nc1ncccc1C(=O)NCC1CCN(C[C@H]2COc3ccc(F)c(F)c3O2)CC1 [Example 27, (S)-2-amino-N-{[1-(7,8-difluoro-1,4-benzodioxan-2-ylmethyl)4-piperidyl]methyl}pyridine-3-carboxamide]
inhibition at 1 µM [1]: 90% | inhibition at 1 µM [2]: 99.9% | % displacement of radio ligand, α1 [3]: 68%

Nc1ncccc1C(=O)NCC1CCN(C[C@H]2COc3cccc(OS(=O)(=O)C(F)(F)F)c3O2)CC1 [Example 28, (S)-2-amino-N-{[1-(8-trifluoromethanesulphonyloxy-1,4-benzodioxan-2-ylmethyl)-4-piperidyl]methyl}pyridine-3-carboxamide]
inhibition at 1 µM [1]: 96% | inhibition at 1 µM [2]: 101% | % displacement of radio ligand, α1 [3]: 98%

O=C(c1ccccn1)N1CCC(CNC[C@H]2COc3ccc(Cl)cc3O2)CC1 [Example 29, 4-[N-(7-chloro-1,4-benzodioxan-2-ylmethyl)aminomethyl]-1-(2-pyridylcarbonyl)piperidine]
inhibition at 1 µM [1]: 95% | % displacement of radio ligand, α1 [3]: 85%

Cc1ccc2c(c1)O[C@@H](CN1CCC(CNC(=O)c3cccnc3)CC1)CO2 [Example 30, (S)-N-{[1-(7-methyl-1,4-benzodioxan-2-ylmethyl)-4-piperidyl]methyl}pyridine-3-carboxamide]
inhibition at 1 µM [1]: 78% | inhibition at 1 µM [2]: 85% | % displacement of radio ligand, α1 [3]: 61%

Cc1ccc2c(c1)O[C@@H](CN1CCC(CNC(=O)c3cccnc3C)CC1)CO2 [Example 31, (S)-2-methyl-N-{[1-(7-methyl-1,4-benzodioxan-2-ylmethyl)-4-piperidyl]-methyl}pyridine-3-carboxamide]
inhibition at 1 µM [1]: 63% | inhibition at 1 µM [2]: 68% | % displacement of radio ligand, α1 [3]: 41%

Cc1ccc2c(c1)O[C@@H](CN1CCC(CNC(=O)c3ccc(-n4cccc4)nc3)CC1)CO2 [Example 32, (S)-N-{[1-(7-methyl-1,4-benzodioxan-2-ylmethyl)-4-piperidyl]methyl}-6-(1-pyrrolyl)pyridine-3-carboxamide]
inhibition at 1 µM [1]: 92% | inhibition at 1 µM [2]: 80% | % displacement of radio ligand, α1 [3]: 71%

CSc1ncccc1C(=O)NCC1CCN(C[C@H]2COc3ccc(C)cc3O2)CC1 [Example 33, (S)-N-{[1-(7-methyl-1,4-benzodioxan-2-ylmethyl)-4-piperidyl]methyl}-2-(methylthio)pyridine-3-carboxamide]
inhibition at 1 µM [1]: 81% | inhibition at 1 µM [2]: 81% | % displacement of radio ligand, α1 [3]: 41%

Cc1ccc2c(c1)O[C@@H](CN1CCC(CNC(=O)c3cncc(Br)c3)CC1)CO2 [Example 34, (S)-5-bromo-N-{[1-(7-methyl-1,4-benzodioxan-2-ylmethyl)-4-piperidyl]-methyl}pyridine-3-carboxamide]
inhibition at 1 µM [1]: 87% | inhibition at 1 µM [2]: 86% | % displacement of radio ligand, α1 [3]: 68%

O=C(NCC1CCN(C[C@H]2COc3ccc(Br)cc3O2)CC1)c1cccnc1 [Example 35, (S)-N-{[1-(7-bromo-1,4-benzodioxan-2-ylmethyl)-4-piperidyl]methyl}pyridine-3-carboxamide]
inhibition at 1 µM [1]: 95% | inhibition at 1 µM [2]: 101% | % displacement of radio ligand, α1 [3]: 73%

Cc1ncccc1C(=O)NCC1CCN(C[C@H]2COc3ccc(Br)cc3O2)CC1 [Example 36, (S)-N-{[1-(7-bromo-1,4-benzodioxan-2-ylmethyl)-4-piperidyl]methyl}-2-methylpyridine-3-carboxamide]
inhibition at 1 µM [1]: 80% | inhibition at 1 µM [2]: 98% | % displacement of radio ligand, α1 [3]: 54%

O=C(NCC1CCN(C[C@H]2COc3ccc(Br)cc3O2)CC1)c1ccc(-n2cccc2)nc1 [Example 37, (S)-N-{[1-(7-bromo-1,4-benzodioxan-2-ylmethyl)-4-piperidyl]methyl}-6-(1-pyrrolyl)pyridine-3-carboxamide]
inhibition at 1 µM [1]: 85% | inhibition at 1 µM [2]: 97% | % displacement of radio ligand, α1 [3]: 66%
